Results reported in patent US20260103474A1, “NOVEL COMPOUNDS FOR THE DIAGNOSIS OF TDP-43 PROTEINOPATHIES” (AC IMMUNE SA, priority 2022, published 2026).

Columns and labels:
[1] = target: human FTD Type A sarkosyl-insoluble brain extracts (Homo sapiens, UniProt Q13148); assay: Kd determination by micro-radiobinding assay on FTD Type A extracts; assay type: binding; settings: tritiated compound 1.29 to 300 nM
Experimental: Human brain extracts were prepared as described in Laferriere et al., 2019, Nature Neurosc. A sample of brain tissue (frontal or temporal cortex) was homogenized at 1:4 (w/v) ratio in the homogenization-solubilization (HS) buffer at 4° C. using tissue homogenizer (Precellys) with CKmix homogenization tubes. The following sequence was used for homogenization: 3 cycles of 30 seconds at 5000 rpm (with 15 seconds pause between each cycle). Homogenized samples were aliquoted and stored at −80° C. in 1.5 mL low protein binding tubes.
Brain homogenates were thawed on ice and resuspended in HS buffer to obtain a final concentration of 2% sarkosyl, 1 unit/μL Benzonase and 1 mM MgCl2. The samples were then incubated at 37° C. under constant shaking at 600 rpm on a thermomixer for 45 minutes (min). The supernatants were collected in a new tube (sarkosyl-soluble fraction, S1). The pellet was resuspended in 1000 μL of myelin floatation buffer and centrifuged at 20,000 g for 60 min at 4° C. The supernatant was carefully removed to remove all the floating lipids. This step was repeated if all the lipids could not be removed in a single step. The pellet was subsequently washed with Phosphate-Buffered Saline (PBS) and centrifuged for 30 min at 20,000 g at 4° C. The final pellet was resuspended in 200 μL PBS and stored at −80° C. (sarkosyl-insoluble fraction). The samples were analyzed by immunoblotting in denaturing conditions.
Human FTD sarkosyl-insoluble brain extracts were spotted onto microarray slides. The slides were incubated with [^3H]-Compounds 1, 7, 8, 9, 15, 16 and 17 in a range of concentrations, varying from 1.29 to 300 nM. After incubation, slides were washed and scanned by a real-time autoradiography system (BeaQuant, ai4R). Quantification of the signal was performed by using the Beamage image analysis software (ai4R). Non-specific signal was determined with an excess of non-radiolabeled compound 1, 7, 8, 9, 15, 16 and 17 (1 μM), respectively, and specific binding was calculated by subtracting the non-specific signal from the total signal.
The Kd (Dissociation constant) and R^2 (parameter ranging between 0.0 and 1.0 that quantifies the goodness of fit, and the best curve fit obtained with value of 1.0) were obtained by fitting the specific binding data with non-linear regression analysis, using a one-site specific binding model in GraphPad Prism8.

[2] = target: T1, PD brain-derived a-synuclein aggregates (Homo sapiens, UniProt P37840); assay: Micro-radiobinding direct binding on PD brain-derived a-synuclein aggregates; settings: tritiated compound 0.6 to 200 nM
T1 construct: from tissue; host or cells: frozen brain tissue of PD donors, 1% sarkosyl-insoluble pellet
Experimental: The procedure was adapted from the protocol described in Spillantini et al., 1998. Frozen tissue blocks from PD donors were thawed on ice and homogenized using a glass dounce homogenizer. The homogenate was then centrifuged at 11,000×g (12,700 RPM) in an ultracentrifuge (Beckman, XL100K) for 20 minutes at 4° C. using a pre-cooled 70.1 rotor (Beckman, 342184). Pellets were resuspended in extraction buffer [10 mM Tris-HCl pH 7.4, 10% sucrose, […], 1% protease inhibitor (Calbiochem 539131), 1 mM EGTA, 1% phosphatase inhibitor (Sigma P5726 and P0044)] and centrifuged at 15,000×g (14,800 RPM, a 70.1 Ti rotor) for 20 minutes at 4° C. […]
PD brain-derived a-synuclein aggregates and AD brain-derived Tau PHF aggregates were spotted onto microarray slides. […] Quantification of signal was performed by using the image analysis software Beamage (ai4R). Non-specific signal was determined with an excess of non-radiolabelled compound (2 μM) and specific binding was calculated by subtracting the non-specific signal from the total signal. Competition was calculated as percentage, where 0% was defined as the specific binding in the presence of vehicle and 100% as the values obtained in the presence of excess of the non-radiolabelled a-syn reference compound. Ki values were calculated in GraphPad Prism7 by applying a nonlinear regression curve fit using a one site, specific binding model. […]

Chain of human FTD Type A sarkosyl-insoluble brain extracts (Q13148 263-414 limits assumed): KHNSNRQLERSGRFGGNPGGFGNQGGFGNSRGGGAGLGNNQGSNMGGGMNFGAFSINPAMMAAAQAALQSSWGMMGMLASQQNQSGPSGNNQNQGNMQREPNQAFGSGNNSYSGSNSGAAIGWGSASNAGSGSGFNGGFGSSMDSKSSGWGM

| Kd [1] [nM] | Direct binding in PD brain-derived a-synuclein aggregates [2] | SMILES |
| --- | --- | --- |
| 25 ± 6 | No significant binding | [3H]C([3H])(O)C1CCN(c2ccc(-c3nc4c(s3)C(=O)N(c3cccnc3)CC4)c(F)n2)CC1 [[^3H]-Compound 17, 2-(2-fluoro-6-(4-(hydroxymethyl-t2)piperidin-1-yl)pyridin-3-yl)-5-(pyridin-3-yl)-6,7-dihydrothiazolo[5,4-c]pyridin-4(5H)-one] |
| 69 ± 21 | No significant binding | [3H]c1cncc(N2CCc3nc(-c4cc([3H])c(N5CC[C@@H](F)C5)nc4F)sc3C2=O)c1 [[^3H]-Compound 1, tritiated 2-[2-fluoro-6-[(3R)-3-fluoropyrrolidin-1-yl]-3-pyridyl]-5-(3-pyridyl)-6,7-dihydrothiazolo[5,4-c]pyridin-4-one] |
